Experimental findings from patent US20260167632A1, “NICOTINAMIDE DERIVATIVES FOR USE IN TREATING DISORDERS ASSOCIATED WITH KCNK13 ACTIVITY” (Cerevance, Inc., priority 2022, published 2026) are described below.

This assay has as its target T1, human KCNK13 (Homo sapiens, UniProt Q9HB14).
T1 construct: expressed in transfected cells
T1 sequence (Q9HB14 1-408): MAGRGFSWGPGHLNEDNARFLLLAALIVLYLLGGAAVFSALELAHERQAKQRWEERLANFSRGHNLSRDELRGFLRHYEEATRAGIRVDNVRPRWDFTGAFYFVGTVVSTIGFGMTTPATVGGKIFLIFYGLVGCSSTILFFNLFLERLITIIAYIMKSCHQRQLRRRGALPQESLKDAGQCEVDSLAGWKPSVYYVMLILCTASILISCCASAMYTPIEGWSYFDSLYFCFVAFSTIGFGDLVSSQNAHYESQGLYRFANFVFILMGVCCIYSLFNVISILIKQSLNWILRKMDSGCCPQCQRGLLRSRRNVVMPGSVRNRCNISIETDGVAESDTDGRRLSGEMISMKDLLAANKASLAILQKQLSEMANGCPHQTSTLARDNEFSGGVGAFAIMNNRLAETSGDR
Put plainly: KCNK13 antagonist activity, thallium flux FLIPR assay in HEK 293 cells stably expressing human KCNK13. The format is cell-based. To be noted: HEK 293 cells stably expressing human KCNK13, Tl+ sensitive dye, compound 15 min before thallium sulfate, ten point curves; read-out: hKCNK13 IC50. Here is the method:
4. Biological Efficacy of Compounds of the Invention
KCNK13 antagonist activity was determined by measuring changes in intracellular Thallium (Tl^+) concentrations using a Tl^+ sensitive fluorescent dye. The changes in fluorescent signal were monitored by Fluorescent Imaging Plate Reader (FLIPR™) technology available from Molecular Devices, LLC, US. KCNK13 mediated increases in intracellular Tl^+ concentration were readily detected by addition of a thallium sulfate Stimulus. 24 hours prior to the assay, human embryonic kidney 293 cells (HEK 293 cells) stably expressing human KCNK13 were seeded in cell culture medium in PDL coated black, clear-bottom 384-well plates (commercially available from Corning Inc., 356663) and grown overnight at 37° C., […]. On the day of the assay, cell culture media was removed and cells were loaded with potassium dye (commercially sold by Molecular Devices, LLC, US, R8222) for 1 hour at room temperature in the dark. Test compounds (at 10 point half log concentration response curves from 100 µM) were added to cells for 15 minutes prior to the addition of thallium sulfate to all wells. The IC50 values were determined from ten point concentration response curves. Curves were generated using the average of two wells for each data point.

The IC50 is the concentration that gives 50% inhibition.

With `COc1ncc(F)cc1C(=O)N(C)C(C)c1ccccc1F` (single isomer, unassigned) [Example 5, 5-fluoro-N-(1-(2-fluorophenyl)ethyl)-2-methoxy-N-methylnicotinamide], the IC50 is not above 500 nM.
In the case of `COc1ncc(F)cc1C(=O)N(C)C(C)c1ccccc1F` (single isomer, unassigned) [Example 6, 5-fluoro-N-(1-(2-fluorophenyl)ethyl)-2-methoxy-N-methylnicotinamide] it was not above 500 nM; in that of `COc1ncc(F)cc1C(=O)N(C)C(C)c1cccc(F)c1` (single isomer, unassigned) [Example 7, 5-fluoro-N-(1-(3-fluorophenyl)ethyl)-2-methoxy-N-methylnicotinamide], not above 200 nM; in that of `COc1ncc(F)cc1C(=O)N(C)C(C)c1cccc(F)c1` (single isomer, unassigned) [Example 8, 5-fluoro-N-(1-(3-fluorophenyl)ethyl)-2-methoxy-N-methylnicotinamide], not above 200 nM.
With `COc1ncc(F)cc1C(=O)N(C)C1CCc2ccc(F)cc21` (single isomer, unassigned) [Example 9, 5-fluoro-N-(6-fluoro-2,3-dihydro-1H-inden-1-yl)-2-methoxy-N-methylnicotinamide], the IC50 was not above 1000 nM.
The value for `COc1ncc(F)cc1C(=O)N(C)C1CCc2ccc(F)cc21` (single isomer, unassigned) [Example 10, 5-fluoro-N-(6-fluoro-2,3-dihydro-1H-inden-1-yl)-2-methoxy-N-methylnicotinamide] was not above 500 nM.
In the case of `CCOc1ncc(Cl)cc1C(=O)N(C)C1CCc2ccccc21` (single isomer, unassigned) [Example 12, 5-chloro-N-(2,3-dihydro-1H-inden-1-yl)-2-ethoxy-N-methylnicotinamide] it was not above 1000 nM; in that of `CCOc1ncc(Cl)cc1C(=O)N(C)C1CCc2ccccc21` (single isomer, unassigned) [Example 13, 5-chloro-N-(2,3-dihydro-1H-inden-1-yl)-2-ethoxy-N-methylnicotinamide], not above 500 nM; in that of `COc1ncc(F)cc1C(=O)N(C)C1CCOc2ccccc21` (single isomer, unassigned) [Example 14, N-(chroman-4-yl)-5-fluoro-2-methoxy-N-methylnicotinamide], not above 500 nM.
The value for `COc1ncc(F)cc1C(=O)N(C)C1CCOc2ccccc21` (single isomer, unassigned) [Example 15, N-(chroman-4-yl)-5-fluoro-2-methoxy-N-methylnicotinamide] was not above 500 nM.
Consider `COc1ncc(F)cc1C(=O)N(C)C1CCc2ccccc21` (single isomer, unassigned) [Example 17, N-(2,3-dihydro-1H-inden-1-yl)-5-fluoro-2-methoxy-N-methylnicotinamide], for which the 50% inhibitory concentration (IC50) was not above 500 nM.
With `COc1ncc(Cl)cc1C(=O)N(C)C1CCOc2ccccc21` (single isomer, unassigned) [Example 18, 5-chloro-N-(chroman-4-yl)-2-methoxy-N-methylnicotinamide], the IC50 was not above 500 nM.
In the case of `COc1ncc(Cl)cc1C(=O)N(C)C1CCOc2ccccc21` (single isomer, unassigned) [Example 19, 5-chloro-N-(chroman-4-yl)-2-methoxy-N-methylnicotinamide] it was not above 500 nM; in that of `COc1ncc(Cl)cc1C(=O)N(C)C1CCc2ccc(F)cc21` (single isomer, unassigned) [Example 20, 5-chloro-N-(6-fluoro-2,3-dihydro-1H-inden-1-yl)-2-methoxy-N-methylnicotinamide], not above 500 nM.
The value for `COc1ncc(Cl)cc1C(=O)N(C)C1CCc2ccc(F)cc21` (single isomer, unassigned) [Example 21, 5-chloro-N-(6-fluoro-2,3-dihydro-1H-inden-1-yl)-2-methoxy-N-methylnicotinamide] was not above 200 nM; that for `COc1ncc(Cl)cc1C(=O)N(C)C1CCc2ccccc21` (single isomer, unassigned) [Example 22, 5-chloro-N-(2,3-dihydro-1H-inden-1-yl)-2-methoxy-N-methylnicotinamide] was not above 500 nM; that for `COc1ncc(Cl)cc1C(=O)N(C)C1CCc2ccccc21` (single isomer, unassigned) [Example 23, 5-chloro-N-(2,3-dihydro-1H-inden-1-yl)-2-methoxy-N-methylnicotinamide] was not above 500 nM.
In the case of `COc1ncc(Cl)cc1C(=O)N(C)C1COc2ccccc21` (single isomer, unassigned) [Example 25, 5-chloro-N-(2,3-dihydrobenzofuran-3-yl)-2-methoxy-N-methylnicotinamide] it was not above 500 nM; in that of `COc1ncc(Cl)cc1C(=O)N(C)C1COc2ccccc21` (single isomer, unassigned) [Example 26, 5-chloro-N-(2,3-dihydrobenzofuran-3-yl)-2-methoxy-N-methylnicotinamide], not above 500 nM.
As for `COc1ncc(Cl)cc1C(=O)N(C)C1COc2ccccc21` (single isomer, unassigned) [Example 27, 5-chloro-N-(2,3-dihydrobenzofuran-3-yl)-2-methoxy-N-methylnicotinamide], the 50% inhibitory concentration (IC50) is not above 500 nM.
The value for `COc1ncc(Cl)cc1C(=O)N(C)C1CCOc2c(F)cccc21` (single isomer, unassigned) [Example 28, 5-chloro-N-(8-fluorochroman-4-yl)-2-methoxy-N-methylnicotinamide] was not above 500 nM; that for `COc1ncc(Cl)cc1C(=O)N(C)C1CCOc2c(F)cccc21` (single isomer, unassigned) [Example 29, 5-chloro-N-(8-fluorochroman-4-yl)-2-methoxy-N-methylnicotinamide] was not above 500 nM; that for `COc1ncc(F)cc1C(=O)N(C)C1CCOc2c(F)cccc21` (single isomer, unassigned) [Example 30, 5-fluoro-N-(8-fluorochroman-4-yl)-2-methoxy-N-methylnicotinamide] was not above 500 nM.
In the case of `COc1ncc(F)cc1C(=O)N(C)C1CCOc2c(F)cccc21` (single isomer, unassigned) [Example 31, 5-fluoro-N-(8-fluorochroman-4-yl)-2-methoxy-N-methylnicotinamide] it was not above 1000 nM.
As for `COc1ncc(Cl)cc1C(=O)N(C)C1COc2cc(F)ccc21` (single isomer, unassigned) [Example 45, 5-chloro-N-(6-fluoro-2,3-dihydrobenzofuran-3-yl)-2-methoxy-N-methylnicotinamide], the 50% inhibitory concentration (IC50) was not above 5000 nM.
Consider `COc1ncc(Cl)cc1C(=O)N(C)C1COc2cc(F)ccc21` (single isomer, unassigned) [Example 46, 5-chloro-N-(6-fluoro-2,3-dihydrobenzofuran-3-yl)-2-methoxy-N-methylnicotinamide], for which the IC50 was not above 1000 nM.
The value for `COc1ncc(Cl)cc1C(=O)N(C)C(C)c1cc(F)ccc1C#N` (single isomer, unassigned) [Example 59, 5-chloro-N-(1-(2-cyano-5-fluorophenyl)ethyl)-2-methoxy-N-methylnicotinamide] was not above 500 nM.
With `COc1ncc(Cl)cc1C(=O)N(C)C(C)c1cc(F)ccc1C#N` (single isomer, unassigned) [Example 60, 5-chloro-N-(1-(2-cyano-5-fluorophenyl)ethyl)-2-methoxy-N-methylnicotinamide], the IC50 is not above 5000 nM.
The value for `COc1ncc(F)cc1C(=O)N(C)C(C)c1cc(F)ccc1C#N` (single isomer, unassigned) [Example 62, N-(1-(2-cyano-5-fluorophenyl)ethyl)-5-fluoro-2-methoxy-N-methylnicotinamide] was not above 1000 nM.
Take `COc1ncc(F)cc1C(=O)N(C)C(C)c1cc(F)ccc1C#N` (single isomer, unassigned) [Example 63, N-(1-(2-cyano-5-fluorophenyl)ethyl)-5-fluoro-2-methoxy-N-methylnicotinamide]: the IC50 is not above 1000 nM.
In the case of `COc1ncc(F)cc1C(=O)N(C)C(C)c1ccc(F)cc1C#N` (single isomer, unassigned) [Example 64, N-(1-(2-cyano-4-fluorophenyl)ethyl)-5-fluoro-2-methoxy-N-methylnicotinamide] it was not above 5000 nM; in that of `COc1ncc(F)cc1C(=O)N(C)C(C)c1ccc(F)cc1C#N` (single isomer, unassigned) [Example 65, N-(1-(2-cyano-4-fluorophenyl)ethyl)-5-fluoro-2-methoxy-N-methylnicotinamide], not above 1000 nM; in that of `COc1ncc(Cl)cc1C(=O)N(C)C(C)c1ccc(F)cc1C#N` (single isomer, unassigned) [Example 66, 5-chloro-N-(1-(2-cyano-4-fluorophenyl)ethyl)-2-methoxy-N-methylnicotinamide], not above 5000 nM.
